For one data set, the system named is GL261 cell line cells. The data set can be described thus: Cellular uptake / cell killing by luminescence, GL261. Type of data set: cell-based, murine. To be noted: Mus musculus, FIG. 5B. How it is done: (§1) Different cell lines were seeded, incubated, and washed prior to administering a dose solution of CK-TGX-MN. Cell lines tested included LNCaP cell line, which is a cell line with epithelial-like morphology that was isolated from a metastatic lymph node a lesion of human prostate cancer; C4-2, which is a prostate cancer cell line derived from LNCaP cells that grows in the absence of androgens, yet responds to manipulation of androgen levels; GL261 cell line, which are murine glioma cells isolated from […] brain; PC-3 cell line, which is a prostate cancer cell line that is typically used as a model of androgen-independent prostate cancer; TRAMP cell line, which are epithelial cells isolated from transgenic adenocarcinoma of the mouse prostate; and Hela cell line, which is an immortalized human cell line isolated from cervical cancer cells.
(§2) The cellular uptake was measured as a function of luminescence and concentration of CK-TGX-MN, by determining the IC50 value. A decrease in luminescence observed translates to the efficacy of CK-TGX-MN in killing the cells of the respective cell culture.

A further data set addresses PI3Kβ isoform (Homo sapiens, UniProt P42338). Description: Inhibition of PI3Kβ isoform, dose response curves (FIG. 4B). The format is biochemical.
Another data set deals with LNCaP cell line cells. Description: Cellular uptake / cell killing by luminescence, LNCaP. The format is cell-based. To be noted: Homo sapiens, FIG. 5F. How it is done: as §1, §2
Finally, moving on to FIG. 5F, the cellular uptake of CK-TGX-MN and TGX-221 in LNCaP cell line cells was measured.

Data set [1] in a line: Pharmacokinetic (PK) study, IV and oral route, in mice. To be noted: mouse, in vivo, oral 2 mg/ml formulation vs IV 1 mg/ml formulation. How it is done: Bioavailability in Pharmacology is a measure of an amount of a drug substance that enters the circulation and becomes completely available for its intended purpose when introduced into the body. There are several delivery routes for drugs including intra-venous route (IV), oral route, subcutaneous route, rectal route, intramuscular route, vaginal route, inhaled route, and the like.
Bioavailability of CK-TGX-MN was determined in relation to a liquid formulation of CK-TGX-MN 1 mg/ml in 5% DMSO, 10%, and 85% aqueous solution. A dose amount of aqueous CK-TGX-MN was prepared for delivery through the IV route in-vivo. Additionally, a liquid formulation of CK-TGX-MN 2 mg/ml in 5% DMSO, 10%, and 85% aqueous solution was prepared for delivery of a dose amount of CK-TGX-MN through the oral route in-vivo. The pharmacokinetic (PK) studies were performed in mice. As shown in graph 302 of FIG. 3B, the depicted example mice had similar clearance of IV delivered CK-TGX-MN over time.

The next data set has as its system Hela cell line cells. The data set can be described thus: Cellular uptake / cell killing by luminescence, Hela. Type of data set: cell-based. To be noted: Homo sapiens, FIG. 5E. How it is done: as §1, §2
Moving on to FIG. 5E, the cellular uptake of CK-TGX-MN and TGX-221 in Hela cell line cells was measured.

The next data set concerns PC-3 cell line cells. Description: Cellular uptake / cell killing by luminescence, PC-3. The format is cell-based. To be noted: Homo sapiens, PC-3 cells, FIG. 5C. How it is done:
as §1, §2
Moving on to FIG. 5C, the cellular uptake of CK-TGX-MN and TGX-221 in PC-3 cell line cells was measured.

For a further data set, the system named is TRAMP cell line cells. Description: Cellular uptake / cell killing by luminescence, TRAMP. Type of data set: cell-based. To be noted: Mus musculus, FIG. 5D. How it is done: as §1, §2
Moving on to FIG. 5D, the cellular uptake of CK-TGX-MN and TGX-221 in TRAMP cell line cells was measured.

Another data set deals with C4-2 cell line cells. Description: Cellular uptake / cell killing by luminescence, C4-2. Type of data set: cell-based. To be noted: Homo sapiens, C4-2 cells, FIG. 5A. How it is done:
as §1, §2

The nature of another data set: physchem. The format is physicochemical.
For data set [2] the following is noted: background statement, cited from earlier work.

pIC50: −log10 of the molar value. Values joined by “and” are separate entries in the source; they are usually repeats but may differ in a detail not shown here. Identical values can stand only once. Like-named read-outs stand apart in the source and are kept apart here.

In general, pIC50 refers to the IC50 on a negative log10 scale, so that one unit is a factor of ten. Usually bioavailability stands for dose-corrected exposure relative to a reference, in per cent. What is called solubility is the dissolved amount per volume that the medium holds.

Sequence of PI3Kβ isoform (P42338 whole entry, canonical isoform): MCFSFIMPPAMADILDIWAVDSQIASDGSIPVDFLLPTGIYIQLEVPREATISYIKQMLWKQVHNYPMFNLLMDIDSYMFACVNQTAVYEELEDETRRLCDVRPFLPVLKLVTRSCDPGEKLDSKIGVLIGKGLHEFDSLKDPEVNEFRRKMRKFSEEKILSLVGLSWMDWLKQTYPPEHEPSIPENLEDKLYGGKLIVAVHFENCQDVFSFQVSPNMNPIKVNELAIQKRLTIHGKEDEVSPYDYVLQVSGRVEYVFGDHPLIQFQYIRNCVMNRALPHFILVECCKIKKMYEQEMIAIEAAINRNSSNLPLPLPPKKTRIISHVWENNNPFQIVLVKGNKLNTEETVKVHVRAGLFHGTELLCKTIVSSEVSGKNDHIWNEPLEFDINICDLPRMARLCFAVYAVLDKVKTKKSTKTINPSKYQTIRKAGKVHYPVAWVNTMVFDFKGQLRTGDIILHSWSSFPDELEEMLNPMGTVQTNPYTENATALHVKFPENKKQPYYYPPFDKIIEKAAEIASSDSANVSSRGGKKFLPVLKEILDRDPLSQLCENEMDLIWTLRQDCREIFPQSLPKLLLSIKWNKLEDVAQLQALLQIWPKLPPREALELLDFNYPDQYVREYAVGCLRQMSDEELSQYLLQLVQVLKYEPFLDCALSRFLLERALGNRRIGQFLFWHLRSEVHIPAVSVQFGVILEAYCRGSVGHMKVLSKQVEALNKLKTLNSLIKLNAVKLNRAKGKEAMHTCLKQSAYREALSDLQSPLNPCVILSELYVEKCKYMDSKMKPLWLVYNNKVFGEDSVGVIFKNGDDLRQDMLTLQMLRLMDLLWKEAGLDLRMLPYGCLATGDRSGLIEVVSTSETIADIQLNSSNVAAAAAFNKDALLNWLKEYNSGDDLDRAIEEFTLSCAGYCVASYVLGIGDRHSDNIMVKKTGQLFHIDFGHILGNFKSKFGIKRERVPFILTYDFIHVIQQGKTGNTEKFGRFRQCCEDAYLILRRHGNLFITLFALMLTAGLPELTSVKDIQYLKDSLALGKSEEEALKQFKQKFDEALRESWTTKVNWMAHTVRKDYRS
Sequence of PI3Kβ isoform (P27986 whole entry partner, canonical isoform): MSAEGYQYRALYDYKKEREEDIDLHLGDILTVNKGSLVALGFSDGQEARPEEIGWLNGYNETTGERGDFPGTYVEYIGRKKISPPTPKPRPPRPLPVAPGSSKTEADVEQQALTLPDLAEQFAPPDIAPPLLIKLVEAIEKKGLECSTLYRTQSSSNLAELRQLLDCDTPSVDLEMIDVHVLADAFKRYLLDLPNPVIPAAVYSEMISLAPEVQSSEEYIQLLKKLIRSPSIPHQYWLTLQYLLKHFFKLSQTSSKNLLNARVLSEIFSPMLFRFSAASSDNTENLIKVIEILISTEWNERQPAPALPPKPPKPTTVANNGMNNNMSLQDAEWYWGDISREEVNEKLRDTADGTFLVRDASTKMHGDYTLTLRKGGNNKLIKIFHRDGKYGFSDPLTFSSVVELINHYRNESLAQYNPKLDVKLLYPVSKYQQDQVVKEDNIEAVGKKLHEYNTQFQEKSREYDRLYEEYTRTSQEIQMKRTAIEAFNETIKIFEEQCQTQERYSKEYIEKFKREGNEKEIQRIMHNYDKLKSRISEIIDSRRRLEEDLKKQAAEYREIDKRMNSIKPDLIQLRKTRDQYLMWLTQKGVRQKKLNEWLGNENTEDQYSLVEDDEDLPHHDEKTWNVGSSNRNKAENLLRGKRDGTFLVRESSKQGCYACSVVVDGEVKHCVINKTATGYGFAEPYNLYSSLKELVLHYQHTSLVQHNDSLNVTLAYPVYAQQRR

For the molecule `Cc1cc(C(C)N(CCN)c2ccccc2)c2nc(N3CCOCC3)cc(=O)n2c1` (stereo not drawn) [CK-TGX-MN, 9-(1-((2-aminoethyl)(phenyl)amino)ethyl)-7-methyl-2-morpholino-4H-pyrido[1,2-a]pyrimidin-4-one], the pIC50 is 4.87 in the data set with GL261 cell line cells; 8.02 against PI3Kβ isoform; 5.19 in the data set with LNCaP cell line cells; 4.62 with Hela cell line cells; 4.61 in the data set on PC-3 cell line cells; 4.76 with TRAMP cell line cells. The molecule further gave a negative logarithm of the IC50 (pIC50) with C4-2 cell line cells of 4.80. This molecule had a bioavailability in data set [1] of approximately 6.4%. Moreover, in “physchem”, the solubility is 4630 µg/mL and 11400 µM.

Take `Cc1cc(C(C)Nc2ccccc2)c2nc(N3CCOCC3)cc(=O)n2c1` (stereo not drawn) [TGX-221, 7-methyl-2-(4-morpholinyl)-9-[1-(phenylamino)ethyl]-4H-pyrido[1,2-a]pyrimidin-4-one]: the pIC50 was 4.38 in the data set with GL261 cell line cells; 4.52 in the data set with LNCaP cell line cells; 4.16 in the data set on Hela cell line cells; 3.81 with PC-3 cell line cells; 4.09 with TRAMP cell line cells; 4.03 in the data set with C4-2 cell line cells. In addition, the solubility in data set [2] was less than 1000 µg/mL; in “physchem”, 90 µg/mL and 250 µM. Besides, the “Log D7.4” value in data set [2] (pH 7.4) was 3.6.

Values taken from patent publication US20250195532A1, “NOVEL PHOSPHOINOSITIDE 3-KINASE (PI3K) INHIBITOR, COMPOSITIONS COMPRISING THE SAME, METHODS OF MAKING, AND METHODS OF TREATING A DISEASE” (The Curators of the University of Missouri, priority 2022, published 2025).
